Source: PubChem BioAssay (NCI)
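Results reflect a 48-hour exposure of cells in 96-well plates to compound at five concentrations. TGI is the concentration that stops growth completely.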

Key:
Assay in all cases: growth of human tumour cells (NCI), 48 h
[1] = test system: EKVX NSCLC
[2] = test system: MOLT-4 leukemia
[3] = test system: MDA-MB-231 breast
[4] = test system: HS 578T breast
[5] = test system: IGROV1 ovarian
[6] = test system: MCF7 breast
[7] = test system: ACHN renal
[8] = test system: SR leukemia
[9] = test system: OVCAR-8 ovarian
[10] = test system: NCI/ADR-RES ovarian
[11] = test system: HCT-116 colon
[12] = test system: SN12C renal
[13] = test system: NCI-H460 lung
[14] = test system: PC-3 prostate
[15] = test system: SF-539 CNS
[16] = test system: HT29 colon
[17] = test system: BT-549 breast
[18] = test system: COLO 205 colon
[19] = test system: NCI-H23 lung
[20] = test system: HCT-15 colon
[21] = test system: SW-620 colon
[22] = test system: 786-0 renal
[23] = test system: SF-268 CNS
[24] = test system: OVCAR-5 ovarian
[25] = test system: SK-MEL-28 melanoma
[26] = test system: SF-295 CNS
[27] = test system: UACC-62 melanoma
[28] = test system: HL-60(TB) leukemia
[29] = test system: UACC-257 melanoma
[30] = test system: CCRF-CEM leukemia
[31] = test system: LOX IMVI melanoma
[32] = test system: KM12 colon
[33] = test system: K-562 leukemia
[34] = test system: RPMI-8226 leukemia
[35] = test system: SK-OV-3 ovarian
[36] = test system: OVCAR-3 ovarian
[37] = test system: DU-145 prostate
[38] = test system: SNB-19 CNS
[39] = test system: MDA-N
[40] = test system: HOP-62 NSCLC
[41] = test system: A498 renal
[42] = test system: MDA-MB-435
[43] = test system: M14 melanoma
[44] = test system: SK-MEL-5 melanoma
[45] = test system: SK-MEL-2 melanoma
[46] = test system: RXF 393 renal
[47] = test system: NCI-H226 lung
[48] = test system: TK-10 renal
[49] = test system: CAKI-1 renal
[50] = test system: U251 CNS
[51] = test system: SNB-75 CNS
[52] = test system: HCC-2998 colon
[53] = test system: NCI-H522 lung
[54] = test system: HOP-92 NSCLC
[55] = test system: T-47D breast
[56] = test system: OVCAR-4 ovarian
[57] = test system: A549 NSCLC
[58] = test system: UO-31 renal
[59] = test system: MALME-3M melanoma

## Cn1c(=O)sc2cc(C(=S)N3CCC(Cc4ccccc4)CC3)ccc21
[1]
  TGI: > 100 µM
[2]
  TGI: > 100 µM
[3]
  TGI: > 100 µM
[4]
  TGI: > 100 µM
[5]
  TGI: > 100 µM
[6]
  TGI: > 100 µM
[7]
  TGI: > 100 µM
[8]
  TGI: > 100 µM
[9]
  TGI: > 100 µM
[10]
  TGI: > 100 µM
[11]
  TGI: > 100 µM
[12]
  TGI: > 100 µM
[13]
  TGI: > 100 µM
[14]
  TGI: > 100 µM
[15]
  TGI: > 100 µM
[16]
  TGI: > 100 µM
[17]
  TGI: > 100 µM
[18]
  TGI: > 100 µM
[19]
  TGI: > 100 µM
[20]
  TGI: > 100 µM
[21]
  TGI: > 100 µM
[22]
  TGI: > 100 µM
[23]
  TGI: > 100 µM
[24]
  TGI: > 100 µM
[25]
  TGI: > 100 µM
[26]
  TGI: > 100 µM
[27]
  TGI: > 100 µM
[28]
  TGI: > 100 µM
[29]
  TGI: > 100 µM
[30]
  TGI: > 100 µM
[31]
  TGI: > 100 µM
[32]
  TGI: > 100 µM
[33]
  TGI: > 100 µM
[34]
  TGI: > 100 µM
[35]
  TGI: > 100 µM
[36]
  TGI: > 100 µM
[37]
  TGI: > 100 µM
[38]
  TGI: > 100 µM
[39]
  TGI: > 100 µM
[40]
  TGI: > 100 µM
[41]
  TGI: > 100 µM
[42]
  TGI: > 100 µM
[43]
  TGI: > 100 µM
[44]
  TGI: > 100 µM
[45]
  TGI: > 100 µM
[46]
  TGI: > 100 µM
[47]
  TGI: > 100 µM
[48]
  TGI: > 100 µM
[49]
  TGI: > 100 µM
[50]
  TGI: 78.1 µM

## C=CCOC(=O)C1=C(CCC[C@@H](C)O[Si](C)(C)C(C)(C)C)N=C(N)N2[C@H](CCO)CC[C@@H]12
[2]
  TGI: 24.9 µM
[3]
  TGI: 29.6 µM
[51]
  TGI: 32.5 µM
[6]
  TGI: 25.7 µM
[7]
  TGI: 40.1 µM
[52]
  TGI: 35.5 µM
[10]
  TGI: 35 µM
[11]
  TGI: 28.6 µM
[12]
  TGI: 31.7 µM
[13]
  TGI: 31.5 µM
[53]
  TGI: 25.2 µM
[14]
  TGI: 20.8 µM
[54]
  TGI: 27.2 µM
[17]
  TGI: 36.5 µM
[18]
  TGI: 22.9 µM
[19]
  TGI: 32.4 µM
[20]
  TGI: 32.5 µM
[22]
  TGI: 33.8 µM
[23]
  TGI: 31 µM
[25]
  TGI: 31.3 µM
[26]
  TGI: 25.2 µM
[27]
  TGI: 33 µM
[29]
  TGI: 38.7 µM
[55]
  TGI: 28.9 µM
[32]
  TGI: 24.1 µM
[33]
  TGI: 21.5 µM
[34]
  TGI: 27.6 µM
[35]
  TGI: 27.2 µM
[36]
  TGI: 23.5 µM
[37]
  TGI: 28.6 µM
[38]
  TGI: 29 µM
[39]
  TGI: 32.9 µM
[40]
  TGI: 27.4 µM
[56]
  TGI: 23.2 µM
[41]
  TGI: 35.7 µM
[42]
  TGI: 27.8 µM
[43]
  TGI: 27.6 µM
[44]
  TGI: 24.9 µM
[45]
  TGI: 30.3 µM
[47]
  TGI: 33.9 µM
[57]
  TGI: 22 µM
[58]
  TGI: 29.6 µM
[48]
  TGI: 34.3 µM
[49]
  TGI: 26.1 µM
[59]
  TGI: 34.9 µM
[50]
  TGI: 24.7 µM

## COC(=O)/C=C/C1(O)C=CC(=O)C=C1
[1]
  TGI: 10.4 µM
[2]
  TGI: > 24.6 µM
[3]
  TGI: 5.37 µM
[51]
  TGI: 24 µM
[5]
  TGI: 7.74 µM
[6]
  TGI: 13.2 µM
[7]
  TGI: 5.25 µM
[8]
  TGI: 10.7 µM
[52]
  TGI: 21 µM
[9]
  TGI: > 100 µM
[10]
  TGI: > 68.2 µM
[11]
  TGI: 3.73 µM
[12]
  TGI: 3.32 µM
[13]
  TGI: > 61.7 µM
[53]
  TGI: 0.598 µM
[14]
  TGI: 9.53 µM
[15]
  TGI: 4.45 µM
[54]
  TGI: > 32.1 µM
[17]
  TGI: 22.9 µM
[18]
  TGI: 23.4 µM
[19]
  TGI: 17.5 µM
[20]
  TGI: > 31.9 µM
[22]
  TGI: 5.36 µM
[23]
  TGI: 5.84 µM
[24]
  TGI: 12 µM
[25]
  TGI: > 19.8 µM
[26]
  TGI: 38.3 µM
[27]
  TGI: 7.43 µM
[28]
  TGI: 6.8 µM
[29]
  TGI: 13.6 µM
[55]
  TGI: > 20.8 µM
[30]
  TGI: 10.7 µM
[31]
  TGI: 4.74 µM
[32]
  TGI: 5.61 µM
[33]
  TGI: > 100 µM
[34]
  TGI: > 100 µM
[35]
  TGI: 42.2 µM
[36]
  TGI: 4.93 µM
[37]
  TGI: 9.57 µM
[38]
  TGI: 18.1 µM
[39]
  TGI: 4.5 µM
[40]
  TGI: 14.4 µM
[56]
  TGI: 15.6 µM
[41]
  TGI: > 60.2 µM
[42]
  TGI: > 39.2 µM
[43]
  TGI: 3.78 µM
[44]
  TGI: 17.6 µM
[45]
  TGI: 19.1 µM
[46]
  TGI: > 25.1 µM
[47]
  TGI: 47.1 µM
[57]
  TGI: > 47.8 µM
[58]
  TGI: 3.51 µM
[48]
  TGI: 16.4 µM
[49]
  TGI: 4.46 µM
[59]
  TGI: 8.26 µM
[50]
  TGI: > 26.5 µM

## CC1CCC2(CC1)NC1=C(CC(C)CC1)C1=C2CC(C)CC1 (stereo not given)
[1]
  TGI: > 100 µM
[2]
  TGI: 53 µM
[3]
  TGI: 53.9 µM
[51]
  TGI: 59.7 µM
[4]
  TGI: 63.2 µM
[5]
  TGI: > 100 µM
[6]
  TGI: 34.5 µM
[7]
  TGI: 62.8 µM
[8]
  TGI: 55.8 µM
[52]
  TGI: 45.1 µM
[9]
  TGI: 65.6 µM
[11]
  TGI: 28 µM
[13]
  TGI: 75.7 µM
[53]
  TGI: 40 µM
[14]
  TGI: 47.9 µM
[15]
  TGI: 40.6 µM
[54]
  TGI: 39.4 µM
[16]
  TGI: 46.5 µM
[17]
  TGI: 38.4 µM
[18]
  TGI: 49.8 µM
[19]
  TGI: 59 µM
[20]
  TGI: 45.9 µM
[21]
  TGI: 37.7 µM
[22]
  TGI: 39.1 µM
[24]
  TGI: 57.9 µM
[25]
  TGI: 35 µM
[26]
  TGI: 36.9 µM
[28]
  TGI: 35.9 µM
[29]
  TGI: 72.9 µM
[55]
  TGI: 78.6 µM
[30]
  TGI: 43.6 µM
[31]
  TGI: 34.9 µM
[32]
  TGI: 40.2 µM
[33]
  TGI: 42.9 µM
[34]
  TGI: 55.6 µM
[35]
  TGI: > 100 µM
[36]
  TGI: 37.4 µM
[37]
  TGI: > 100 µM
[38]
  TGI: 78.2 µM
[39]
  TGI: > 100 µM
[56]
  TGI: 94.2 µM
[41]
  TGI: > 100 µM
[43]
  TGI: 40.6 µM
[44]
  TGI: 24.4 µM
[45]
  TGI: 57.8 µM
[46]
  TGI: 30.7 µM
[47]
  TGI: 30.8 µM
[57]
  TGI: > 100 µM
[58]
  TGI: 51.7 µM
[48]
  TGI: 89.2 µM
[49]
  TGI: 54.5 µM
[59]
  TGI: 74.5 µM
[50]
  TGI: 33.5 µM
